These results are taken from patent US20210325406A1 (priority 2018, published 2021).

Data set [1] addresses T1, Au(III) embedded MspA-M (Mycolicibacterium smegmatis, UniProt A0QR29, D117N/D118M/D120N/D145R/D161R/E166K). It counts as binding.
Data set [2] has as its target T1, Au(III) embedded MspA-M. It is filed as binding. The source holds these as a separate data set.
In data set [3] the target is [AuCl4]− embedded MspA-M nanopore (Mycolicibacterium smegmatis, UniProt A0QR29, D117N/D118M/D120N/D145R/D161R/E166K).
Chain of [AuCl4]− embedded MspA-M nanopore (A0QR29 28-211 D117N/D118M/D120N/D145R/D161R/E166K): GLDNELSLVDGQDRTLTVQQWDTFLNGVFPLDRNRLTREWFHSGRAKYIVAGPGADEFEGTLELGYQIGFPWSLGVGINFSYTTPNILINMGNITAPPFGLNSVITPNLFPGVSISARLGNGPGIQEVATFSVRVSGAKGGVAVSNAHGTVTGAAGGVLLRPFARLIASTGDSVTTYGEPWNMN

Values joined by “and” are separate entries in the source; they are usually repeats but may differ in a detail not shown here. Equal entries are not always repeated. “Also recorded” adds a separate entry of the source. Where two headings read alike, the source gives them in different places.

T1 sequence (A0QR29 28-211 D117N/D118M/D120N/D145R/D161R/E166K limits assumed): as the sequence (A0QR29 28-211 D117N/D118M/D120N/D145R/D161R/E166K) above

Regarding `N[C@@H](CS)C(=O)O` [L-Cysteine, L-cysteine], at Au(III) embedded MspA-M [1], the “ΔI0−1, cys/I0” value was 0.104±0.008 and 0.105 ± 0.008 and 0.104 ± 0.007; the “ΔI1−1, Cys” value is 13.7 pA and 13.1 pA and 14.2 pA.
Take `N[C@@H](CCC(=O)N[C@@H](CS)C(=O)NCC(=O)O)C(=O)O` [L-Glutathione, L-glutathione]: on Au(III) embedded MspA-M [1], the “ΔI0−1, GSH/I0” value was 0.167 ± 0.023 and 0.151 ± 0.015 and 0.145 ± 0.015; the “ΔI1−1, GSH” value is 23.3 pA and 29.2 pA and 25.1 pA.
Take `N[C@@H](CCS)C(=O)O` [L-Homocysteine, L-homocysteine]: at Au(III) embedded MspA-M [1], the “ΔI0−1, Hcy/I0” value was 0.13±0.01 and 0.123 ± 0.01 and 0.129 ± 0.01 and 0.131 ± 0.01; the “ΔI1−1, Hcy” value is 21.8 pA and 22.7 pA and 23.6 pA.
For the molecule `CSCC[C@H](N)C(=O)O` [L-Methionine, L-methionine], on Au(III) embedded MspA-M [2], the “absolute blockage amplitude from single L-methionine” value is given as “approximately 37 pA”; the “amplitude, times larger than previously reported amino acid sensing using engineered α-HL” value is listed as “about 10 times”; the “dwell time of state 3, three independent measurements” value amounted to 10.05 ± 1.73 ms; the “ΔI1-3, three independent measurements” value turned out to be 48.67±0.91 pA.
Consider `NC(=O)C[C@H](N)C(=O)O` [L-asparagine, reference compound], for which the “events like state 3 / extra sensing signals” value on Au(III) embedded MspA-M [2] is reported as “No extra sensing signals; also recorded: no events at all like state 3”.
With `NCC(=O)O` [L-glycine, reference compound], the “events like state 3 / extra sensing signals” value on Au(III) embedded MspA-M [2] is “No extra sensing signals; also recorded: no events at all like state 3”.

B1: 78-nt: 78 nucleotide ssDNA composed of a random sequence (Table 6) (nucleic acid)
DNA: AAGCAGACAGGCGGGAAGGTTTTTTTTCTAGAGGGGAATTGTTATCCGCTCACAATTCCCCTATAGTGAGTCGTATTA
modifications: DNA, backbone and methylation of C not given here
On to B1, for which the ΔI/I0 in data set [3] (78-nt ssDNA 4 μM, 10 μM HAuCl4, +100 mV, Blockade level 0) was found to be 0.23 ± 0.027; in data set [3] (78-nt, Blockade level 1), 0.37 ± 0.042; in data set [3] (78-nt, Blockade level 2), 0.59 ± 0.019; in data set [3] (78-nt, Blockade level 3) it was 0.88 ± 0.035. In addition, the Mean dwell time worked out at 0.23 ± 0.025 ms in data set [3] (78-nt, Blockade level 0); 0.97 ± 0.17 ms in data set [3] (78-nt, Blockade level 1); 5.52 ± 1.14 ms in data set [3] (78-nt, Blockade level 2); 72.81 ± 13.98 ms in data set [3] (78-nt, Blockade level 3).
